Experimental findings from US10709724B2, “Methods of treating mitochondrial dysfunction” (Ecole Polytechnique Federale de Lausanne (EPFL), priority 2011, dated 2020) are described below.

One experiment has as its system HEK293T cells. Nature of the experiment: Nampt, PARP activity, glycolysis and ATP in NR-treated HEK293T cells. Type of experiment: cell-based, human. As for the experimental part: mRNA and mtDNA Analysis. Total RNA was prepared using TRIzol (Invitrogen) according to the manufacturer's instructions. RNA was treated with DNase, and 2 μg of RNA was used for reverse transcription (RT). cDNA was purified on QIAquick PCR cleanup columns (Qiagen, Valencia, Calif., USA). 50× diluted cDNA was used for RT-quantitative PCR (RT-VCR) VCR) reactions (Bai et al., 2007). The RT-qPCR reactions were performed using the Light-Cycler system (Roche Applied Science) and a qPCR Supermix (Qiagen) with the primers for mice summarized in Table 1 and 4, and with the primers for worms summarized on Table 7. mtDNA quantification was performed as described (Lagouge et al., 2006) with the primers indicated in Table 2 and 5.
(§1) Immunoprecipitation, SDS-PAGE, Western Blotting. […] Reactions were developed by enhanced chemiluminescence (Amersham, Little Chalfont, UK), PGC-1α, FOXO1 and Ndufa9 acetylation levels were analyzed by immunoprecipitation from cellular or nuclear lysates of tissues with anti-PGC-1α (Millipore), anti-FOXO1 (Cell Signaling, Danvers, Mass., USA) and anti-Ndufa9 (Abcam) antibody followed by Western blot using an acetyl-lysine antibody (Cell Signaling) that was normalized to total PGC-1a/FOXO1/Ndufa9 levels (Lagouge et al., 2006; Rodgers et al., 2005). […] All blots were quantified by densitometry using ImageJ software. […]

A further experiment has as its system SIRT3. The experiment can be described thus: NR in SIRT3−/− mouse embryonic fibroblasts. The conditions noted are these: 0.5 mM, 24 hrs. Type of experiment: cell-based. As to the method: Cell Culture, Transfection, Adenoviral Infection and Mitochondrial Characterization. HEK293T, MEF and C2C12 cells were cultured in DMEM (4.5 g/l glucose, 10% FCS). PARP-1^+/+ and PARP-1^−/− MEFs were prepared as described in (Menissier-de Murcia et al., 1997). SIRT1 and MEFs were kindly provided by Fred Alt (Chea et al., 2005). SIRT3 MER were established according to standard techniques from conditional SERT3^−/− mice. […] Mitochondrial charge determination was performed as described (Bai et al., 2001) and DNA strand breaks were quantified by TUNEL assays according to the manufacturer's instructions (Millipore).
as §1

As to `NC(=O)c1ccc[n+]([C@@H]2O[C@H](CO)[C@@H](O)[C@H]2O)c1` [NR, nicotinamide riboside], the “cellular glycolytic rates or ATP levels” value in the experiment with HEK293T cells is given as “not linked to changes in cellular glycolytic rates or ATP levels”. For the same compound, the “Nampt mRNA or protein content” value in the experiment with HEK293T cells (0.5 mM, 24 hrs) is “could not see any change”. Moreover, in the experiment on SIRT3, the “NAD+ levels in SIRT3−/− MEFs” value is “increased to similar levels as in SIRT3^+/+ MEFs” and the “acetylation status of SOD2 in SIRT3−/− MEFs” value was “unable to decrease the acetylation status of SOD2”.
